Read-outs that look alike come from different tables or passages of the source. One block for each compound: values may come before it.
Tests used:
[1] = system: voltage sensitive sodium channels; settings: in vitro studies; cited from earlier work
[2] = cited from earlier work
[3] = Solid form after heating, analyzed by PXRD; format: physicochemical
Method: The present invention also provides for processes that convert one form of oxcarbazepine into another form of oxcarbazepine. Form A may be obtained by heating oxcarbazepine solvate Form E at elevated temperatures between 40° C. and 80° C., preferably 60° C., for a period of 2 hours to 10 hours, preferably 4 hours. One skilled in the art may appreciate that Form E may transform to Form A under different conditions, and that the optimal conditions may be discovered with routine experimentation. The present invention also provides a process for transforming Form B to Form A. At about ambient temperature, Form B transforms to Form C. One skilled in the art would appreciate that such a transition may also occur at temperatures above and below ambient temperature, and that by routine experimentation the boundary of the temperature range may be determined. At higher temperatures, between 60° C. and 120° C., preferably 60° C., a transformation from form B to form A occurs after a few hours, as determined by the temperature. The temperature at which Form B transforms to Form A rather than Form C may be determined by routine experimentation. One skilled in the art may appreciate that the rate and extent of the transformation varies with the conditions and the amount of time under which the transformation occurs. […] FTIR spectra were recorded using Nicolet Avatar 360 spectrometer. […]

[4] = Solid form after storage at ambient temperature, analyzed by PXRD; format: physicochemical; settings: stored at ambient temperature (about 20 to 30° C.; gradual, may occur over several months)
Method: The present invention also provides a process for transforming Form B to Form C. […] The transformation is gradual and prolonged, and may occur over several months. One skilled in the art may appreciate that the optimal conditions and time for transformation may be discovered through routine experimentation. The characterization of crystalline phases were performed using Phillips PW 1710 Diffractometer. Thermograviometric analysis (TGA) was produced using Mettler TG50 equipped with Mettler TC11 TA processor. Differential Scanning calorimetry (DSC) was performed using Mettler DSC 30 apparatus. FTIR spectra were recorded using Nicolet Avatar 360 spectrometer. Oxcarbazepine Form B was stored at an ambient temperature. The resulting material was analyzed by PXRD and found to be Form C.

[5] = Solid form after slurry in protic solvent, analyzed by PXRD; format: physicochemical
Method: One skilled in the art may appreciate that other protic solvents may be used and the optimal conditions may be determined through routine experimentation. The characterization of crystalline phases were performed using Phillips PW 1710 Diffractometer. Thermograviometric analysis (TGA) was produced using Mettler TG50 equipped with Mettler TC11 TA processor. Differential Scanning calorimetry (DSC) was performed using Mettler DSC 30 apparatus. FTIR spectra were recorded using Nicolet Avatar 360 spectrometer. Oxcarbazepine Form B was suspended in ethanol for 24 hours. The product was analyzed by PXRD and determined to be Form A. Oxcarbazepine Form C was suspended in ethanol for 24 hours. The product was analyzed by PXRD and determined to be Form A. Oxcarbazepine Form D was suspended in water for 24 hours. The product is analyzed by PXRD and is determined to be Form A.

SMILES: NC(=O)N1c2ccccc2CC(O)c2ccccc21 (centres unmarked) [10-hydroxy metabolite of oxcarbazepine]
effect on voltage sensitive sodium channels [1]: blocks voltage sensitive sodium channels

SMILES: NC(=O)N1c2ccccc2CC(=O)c2ccccc21 [Oxcarbazepine Form A, 10-oxo-10,11-dihydro-5H-dibenz[b, f]azepine-5-carboxamide]
solubility ([2]; solvents ethanol, ether and water): practically insoluble | solubility ([2]; solvents such as chloroform, dichloromethane, acetone and methanol): slightly soluble

SMILES: NC(=O)N1c2ccccc2CC(=O)c2ccccc21 [Oxcarbazepine Form B, 10-oxo-10,11-dihydro-5H-dibenz[b, f]azepine-5-carboxamide]
crystal form found by PXRD after heating (solid-state stability) ([3]; heated to about 60° C., maintained for five hours): Form A | crystal form found by PXRD after storage (solid-state stability) [4]: Form C | crystal form found by PXRD after suspension in solvent (solid-state stability) ([5]; suspended in ethanol for 24 hours): Form A

Continued, values first:

crystal form found by PXRD after suspension in solvent (solid-state stability) ([5]; suspended in water for 24 hours): Form A
SMILES: NC(=O)N1c2ccccc2CC(=O)c2ccccc21 [Oxcarbazepine Form D, 10-oxo-10,11-dihydro-5H-dibenz[b, f]azepine-5-carboxamide]

crystal form found by PXRD after heating (solid-state stability) ([3]; heated to 60° C., maintained for 4 hours): Form A
SMILES: NC(=O)N1c2ccccc2CC(=O)c2ccccc21 [Oxcarbazepine solvate Form E, 10-oxo-10,11-dihydro-5H-dibenz[b, f]azepine-5-carboxamide]
